Each block holds one compound with its values, some of them ahead of it.
Assays:
E. coli = assay: Antimicrobic susceptibility testing (AST) by digital microscopy: count sum, area sum, area/count ratio; format: cell-based
Protocol: FIGS. 7-23 illustrate various features and steps of optimized AST method 101 (FIG. 19). In some versions, system 1 as discussed above may be used to facilitate some or all of the features provided in optimized AST method 101. Optimized AST method 101 includes performing an image analysis cycle 102 repetitively until a MIC is determined. FIG. 8 provides several exemplary digital microscopy parameters for use in optimized AST method 101. Test well 20 is embodied by a “384” style test well, having a clear viewing bottom. The volume of inoculum in test well 20 may be set to 20 microliters to reduce the amount of materials such as bulk diluents required by AST method 101 and/or minimize light artifacts and provide sampling of a consistent number of microbes from the 1:250 dilution of the 0.5 MacFarland inoculum. […] the volume of inoculum in test well 20 generally increases the light artifacts. In some instances, capturing a single vertical plane 103 at 20× objective whereby AST camera 35 is set at 0.33 microns/pixel may be sufficient for sampling the inoculum and ensuring that each individual microbe is recognizable. However, these parameters are configurable and may change as desired by the user or the underlying needs of the system. Capturing three focal sites spaced about 5 microns apart within single vertical plane 103 may also provide a sufficient number of microbes in the sample to count for use in optimized AST method 101. These three focal sites are labeled site 105, site 107, and site 109 in FIG. 8. In an exemplary version of optimized AST method 101, each focal site is approximately 700×700 microns within single vertical plane 103, rather than capturing three sites in three different vertical planes. AST camera 35, optics system 9, and computer 49 are configured to capture an image of each focal site in consecutive time periods, manipulate each of these images, and thereafter use the data derived from these manipulated images to make a MIC determination. Image analysis cycle 102 is generally depicted in FIG. 9 and comprises an image capture step 111, an image enhancement step 113, an image segmentation step 115, and an object counting step 117. Optimized AST method 101 includes performing image analysis cycle 102 repetitively until a MIC is determined. Image analysis cycle 102 utilizes one or more instances of computer 49 and the various elements thereof to perform image capture step 111, image enhancement step 113, image segmentation step 115, and object counting step 117, as well as any sub steps provided therein. Once image segmentation step 115 generates segmented image 143, image segmentation step 115 proceeds to object counting step 117. In object counting step 117, the background and foreground pixels are considered to derive information regarding the number of microbes in the sample, the area occupied by the microbes in the sample, and the ratio between the number of microbes and the area occupied by the microbes. In some versions of object counting step 117, the actual microbe count is compared with an average microbe count to determine if an error occurred within the image capture process. The comparison may incorporate a standard deviation with the average microbe count to generalize the microbe comparison. Object counting step 117 may be configured to derive information regarding the ratio between the total area occupied by all of the microbes in the image and the total count of microbes. This information may be useful by determining whether the microbes are undergoing elongation over time. Elongation is a precursor to death and indicates the concentration of the antimicrobic dilution is negatively affecting the microbes. More specifically, elongation may occur when microbes such as bacteria encounter an effective amount of antibiotic drugs. Once object counting step 117 derives the desired information from segmented image 143, image analysis cycle 102 terminates. […]

[1] = test system: gram negative bacteria carrying the Klebsiella pneumonia carbapenemase (KPC) resistance mechanism; assay: Growth pattern combined with fluorogenic pH test (MEU) to detect resistance and predict MIC; format: cell-based; details: predicted if pH changes in Meropenem well within 1-2 hours and the growth pattern is identified
Description: The growth pattern information derived from optics system 9 may also be combined with a fluorogenic test measuring a change in pH to detect some mechanisms of resistance in the microbes being tested. As an example, one of the fluorogenic test substrates could be an antimicrobial agent. Degradation of the antimicrobial agent leads to a change in the pH of the medium within two hours after inoculation, and the pH change can be detected with an indicator that changes fluoresces with changes in pH. Combining the information on the growth patterns (cell count, area, and area/count), as described above, along with an indication that the antimicrobial agent has degraded provides a way to quickly ascertain if the microbe is resistant and helps to determine the MIC of the organism.
For example, the antibiotic Meropenem is enzymatically degraded by microbes such as gram negative bacteria carrying the Klebsiella pneumonia carbapenemase (KPC) resistance mechanism. If Meropenem is degraded, the medium drops in pH. The fluorogenic pH indicator, MEU (methyllumbeliferone) will change (decrease) in fluorescence with that change. This change occurs within 1 to 2 hours. […]

Compound: CO/N=C(\C(=O)N[C@@H]1C(=O)N2C(C(=O)O)=C(CSc3nc(=O)c(=O)[nH]n3C)CS[C@H]12)c1csc(N)n1 [Cax]
effect on bacteria count (E. coli; E. coli sample, Cax 0.12 dilution compared with Growth sample (FIG. 20A)): no effect | MIC (E. coli; E. coli sample, from count sum data (FIG. 20A)): 0.25 µg/mL | area/count ratio (elongation spike) (E. coli; E. coli, Cax 0.25 and higher dilutions (FIG. 20C), No Growth line approximately 4.0): above 8.0 | minimum amount of antibiotic to have the desired effect on the area occupied by the bacteria (E. coli; E. coli, from area sum data (FIG. 20B)): 0.25 | MIC (E. coli; E. coli, from area/count ratio data, elongation spike (FIG. 20C)): 0.25 µg/mL

Compound: CO/N=C(\C(=O)N[C@@H]1C(=O)N2C(C(=O)[O-])=C(C[N+]3(C)CCCC3)CS[C@H]12)c1csc(N)n1 [Cefepime]
MIC (E. coli; E. coli sample, bacteria count data at around the 200-minute mark (FIG. 21)): 0.06 µg/mL | MIC (E. coli; E. coli sample, ratio data at around the 120-minute mark (FIG. 22)): 0.06 µg/mL

MIC [1]: greater than 1 mcg/ml
Compound: C[C@@H](O)[C@H]1C(=O)N2C(C(=O)O)=C(S[C@@H]3CN[C@H](C(=O)N(C)C)C3)[C@H](C)[C@H]12 [Meropenem]

Compound: CC1(C)S[C@@H]2[C@H](NC(=O)[C@H](N)c3ccccc3)C(=O)N2[C@H]1C(=O)O [ampicillin]
growth morphology after exposure (E. coli; E. coli exposed to a dilution of ampicillin (FIG. 17) vs free from ampicillin (FIG. 18)): abnormal growth in the form of elongation
